In patent EP4810052A2, “HCRHR2 SELECTIVE POLYPEPTIDES” (Gubra A/S, priority 2023, dated 2026):
Like-named read-outs stand apart in the source and are kept apart here. Starred links: 1 amine or outer side, 2 acyl side, 3 side chain; linkers in the order of their positions; H or OH if unused. Non-standard residues stand in square brackets, D forms with d. Residues, ends and D or L forms follow the SMILES beside them. Groups on a side chain read outwards from the residue. *: point of attachment. C20 diacid = O=C(O)CCCCCCCCCCCCCCCCCCC(=O)*; Pro(4S-NH2) = N[C@@H]1CN[C@H](C(=O)O)C1; γGlu = O=C(O)[C@H](CCC(=O)[*:2])N[*:1]; NMeI = CC[C@H](C)[C@H](NC)C(=O)O; Nle = CCCC[C@H](N)C(=O)O; AEEA = NCCOCCOCC(=O)O; Aib = CC(C)(N)C(=O)O

Assays:
hCRHR2 = target: T1, hCRHR2 (Homo sapiens, UniProt Q13324); assay: HTRF cAMP assay, determination of hCRHR2 potency (peptide libraries 5 conc., purified peptides 11 conc.); type: cell-based
T1 sequence (Q13324 1-411): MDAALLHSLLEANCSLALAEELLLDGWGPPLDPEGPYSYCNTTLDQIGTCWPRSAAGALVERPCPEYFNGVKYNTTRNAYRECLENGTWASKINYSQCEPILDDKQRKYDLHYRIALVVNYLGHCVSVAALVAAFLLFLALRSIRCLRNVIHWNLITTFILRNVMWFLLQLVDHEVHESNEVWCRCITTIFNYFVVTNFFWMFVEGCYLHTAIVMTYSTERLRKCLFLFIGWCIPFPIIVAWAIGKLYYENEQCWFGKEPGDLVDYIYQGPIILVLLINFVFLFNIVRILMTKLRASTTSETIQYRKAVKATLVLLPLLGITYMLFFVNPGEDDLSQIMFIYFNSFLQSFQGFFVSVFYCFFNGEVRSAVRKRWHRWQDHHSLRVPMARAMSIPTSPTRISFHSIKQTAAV
In short: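 CHO-K1 cells stably expressing human CRHR2, thawed from frozen stocks just before use and run in suspension; cAMP measured by competitive HTRF immunoassay (cryptate anti-cAMP, d2-cAMP). Agonist peptides tested at 5 (libraries) or 11 (purified) concentrations; EC50 from sigmoid variable-slope nonlinear regression.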

hCRHR1 = target: T2, hCRHR1 (Homo sapiens, UniProt P34998); assay: HTRF cAMP assay, determination of hCRHR1 potency (peptide libraries 5 conc., purified peptides 11 conc.); type: cell-based
T2 sequence (P34998 24-415): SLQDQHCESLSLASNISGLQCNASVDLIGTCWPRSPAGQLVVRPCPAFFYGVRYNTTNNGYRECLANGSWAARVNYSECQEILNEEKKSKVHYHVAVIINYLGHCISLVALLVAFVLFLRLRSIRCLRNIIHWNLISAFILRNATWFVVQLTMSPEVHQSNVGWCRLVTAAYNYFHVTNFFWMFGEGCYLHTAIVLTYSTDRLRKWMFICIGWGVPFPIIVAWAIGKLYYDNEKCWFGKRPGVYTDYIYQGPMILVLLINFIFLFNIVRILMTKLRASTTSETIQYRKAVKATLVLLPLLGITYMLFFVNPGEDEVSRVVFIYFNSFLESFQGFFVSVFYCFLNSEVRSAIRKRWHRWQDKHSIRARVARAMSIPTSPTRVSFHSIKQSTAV
In short: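 CHO-K1 cells stably expressing human CRHR1, thawed from frozen stocks just before use, were stimulated in suspension with agonist peptides. cAMP was measured by HTRF competitive immunoassay (cryptate anti-cAMP antibody vs d2-cAMP).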

[1] = Table 3, matched molecular pairs X^38 L vs Nle, peptide library of Example 4, read-out: hCRHR2 pEC50 (converted)
[2] = Table 3, matched molecular pairs X^38 L vs Nle, peptide library of Example 4, read-out: hCRHR1 pEC50 (converted)
[3] = library peptides, matched molecular pairs L vs Nle in position X^38, read-out: Potency hCRHR2 pEC50 (converted)
[4] = library peptides, matched molecular pairs L vs Nle in position X^38, read-out: Potency hCRHR1 pEC50 (converted)

SMILES | EC50 (hCRHR2; [1]) [nM] | EC50 (hCRHR1; [2]) [nM] | EC50 (hCRHR2; [3]) [nM] | EC50 (hCRHR1; [4]) [nM] | other results
CCCC[C@H](NC(=O)[C@@H](NC(=O)[C@H](CCC(=O)O)NC(=O)[C@H](C)NC(=O)[C@H](CC(N)=O)NC(=O)C(C)(C)NC(=O)[C@H](CCCCNC(=O)COCCOCCNC(=O)COCCOCCNC(=O)CC[C@H](NC(=O)CC[C@H](NC(=O)CCCCCCCCCCCCCCCCCCC(=O)O)C(=O)O)C(=O)O)NC(=O)[C@H](C)NC(=O)[C@H](CCC(N)=O)NC(=O)[C@H](CCC(=O)O)NC(=O)[C@H](CCCNC(=N)N)NC(=O)[C@H](C)NC(=O)[C@H](C)NC(=O)[C@H](CCCNC(=N)N)NC(=O)[C@H](C)NC(=O)[C@H](CCCNC(=N)N)NC(=O)[C@H](C)NC(=O)[C@H](CCC(N)=O)NC(=O)[C@@H](NC(=O)[C@H](CC(C)C)NC(=O)[C@H](CC(C)C)NC(=O)[C@@H](NC(=O)[C@H](CCC(N)=O)NC(=O)[C@H](CC(C)C)NC(=O)[C@H](CC(C)C)NC(=O)CNC(=O)[C@@H](NC(=O)[C@@H]1CCCN1C(=O)[C@@H](NC(=O)[C@H](CC(=O)O)NC(=O)[C@H](CC(C)C)NC(=O)[C@H](CO)NC(=O)[C@H](CC(C)C)NC(=O)[C@@H](NC(=O)[C@@H](NC)[C@@H](C)CC)C(C)C)C(C)C)[C@@H](C)CC)[C@@H](C)CC)C(C)C)[C@@H](C)CC)C(=O)N[C@@H](C)C(=O)N[C@@H](CCC(=O)O)C(=O)N[C@H](C(N)=O)C(C)C [compound 138] (H-[NMeI]VLSLDVPIGLLQILLVQARARAAREQAK([AEEA-AEEA-γGlu-γGlu-C20 diacid])[Aib]NAEI[Nle]AEV-NH2) |  |  |  |  | EC50 (hCRHR2; Table 4, library peptides having X^38 = Nle, read-out: hCRHR2 pEC50 (converted)): 0.0158 nM; EC50 (hCRHR1; Table 4, library peptides having X^38 = Nle, read-out: hCRHR1 pEC50 (converted)): 1000 nM
CC[C@H](C)[C@H](N)C(=O)N[C@H](C(=O)N[C@@H](CC(C)C)C(=O)N[C@@H](CO)C(=O)N[C@@H](CC(C)C)C(=O)N[C@@H](CC(=O)O)C(=O)N[C@H](C(=O)N1CCC[C@H]1C(=O)N[C@H](C(=O)NCC(=O)N[C@@H](CC(C)C)C(=O)N[C@@H](CC(C)C)C(=O)N[C@@H](CCC(N)=O)C(=O)N[C@H](C(=O)N[C@@H](CC(C)C)C(=O)N[C@@H](CC(C)C)C(=O)N[C@@H](CCC(=O)O)C(=O)N[C@@H](CCC(N)=O)C(=O)N[C@@H](C)C(=O)N[C@@H](CCCNC(=N)N)C(=O)N[C@@H](C)C(=O)N[C@@H](CCCNC(=N)N)C(=O)N[C@@H](C)C(=O)N[C@@H](CC(C)C)C(=O)N[C@@H](CCCNC(=N)N)C(=O)N[C@@H](CCC(N)=O)C(=O)N[C@@H](CCC(=O)O)C(=O)N[C@@H](C)C(=O)N[C@@H](CCCCNC(=O)COCCOCCNC(=O)COCCOCCNC(=O)CC[C@H](NC(=O)CC[C@H](NC(=O)CCCCCCCCCCCCCCCCCCC(=O)O)C(=O)O)C(=O)O)C(=O)N[C@H](C(=O)N[C@@H](CC(N)=O)C(=O)N[C@@H](C)C(=O)N[C@@H](CCC(=O)O)C(=O)N[C@H](C(=O)N[C@@H](CC(C)C)C(=O)N[C@@H](C)C(=O)N[C@@H](CCC(=O)O)C(=O)N[C@H](C(N)=O)C(C)C)[C@@H](C)CC)[C@@H](C)O)[C@@H](C)CC)[C@@H](C)CC)C(C)C)C(C)C [SEQ ID NO: 37] (H-IVLSLDVPIGLLQILLEQARARALRQEAK([AEEA-AEEA-γGlu-γGlu-C20 diacid])TNAEILAEV-NH2) | 3.16 | 158000 |  |  | 
CC[C@H](C)[C@H](N)C(=O)N[C@H](C(=O)N[C@@H](CC(C)C)C(=O)N[C@@H](CO)C(=O)N[C@@H](CC(C)C)C(=O)N[C@@H](CC(=O)O)C(=O)N[C@H](C(=O)N1C[C@@H](N)C[C@H]1C(=O)N[C@H](C(=O)NCC(=O)N[C@@H](CC(C)C)C(=O)N[C@@H](CC(C)C)C(=O)N[C@@H](CCC(N)=O)C(=O)N[C@H](C(=O)N[C@@H](CC(C)C)C(=O)N[C@@H](CC(C)C)C(=O)N[C@@H](CCC(=O)O)C(=O)N[C@@H](CCC(N)=O)C(=O)N[C@@H](C)C(=O)N[C@@H](CCCNC(=N)N)C(=O)N[C@@H](C)C(=O)N[C@@H](CCCNC(=N)N)C(=O)N[C@H](C(=O)N[C@@H](C)C(=O)N[C@@H](CCCNC(=N)N)C(=O)N[C@@H](CCC(=O)O)C(=O)N[C@@H](CCC(N)=O)C(=O)N[C@@H](C)C(=O)N[C@@H](CCCCNC(=O)COCCOCCNC(=O)COCCOCCNC(=O)CC[C@H](NC(=O)CC[C@H](NC(=O)CCCCCCCCCCCCCCCCCCC(=O)O)C(=O)O)C(=O)O)C(=O)N[C@H](C(=O)N[C@@H](CC(N)=O)C(=O)N[C@@H](C)C(=O)N[C@@H](CCC(=O)O)C(=O)N[C@H](C(=O)N[C@@H](CC(C)C)C(=O)N[C@@H](C)C(=O)N[C@@H](CCC(=O)O)C(=O)N[C@H](C(N)=O)C(C)C)[C@@H](C)CC)[C@@H](C)O)C(C)C)[C@@H](C)CC)[C@@H](C)CC)C(C)C)C(C)C [compound 76] (H-IVLSLDV[Pro(4S-NH2)]IGLLQILLEQARARVAREQAK([AEEA-AEEA-γGlu-γGlu-C20 diacid])TNAEILAEV-NH2) |  |  | 1.58 | 1.58 | 
CC[C@H](C)[C@H](N)C(=O)N[C@H](C(=O)N[C@@H](CC(C)C)C(=O)N[C@@H](CO)C(=O)N[C@@H](CC(C)C)C(=O)N[C@@H](CC(=O)O)C(=O)N[C@H](C(=O)N1CCC[C@H]1C(=O)N[C@H](C(=O)NCC(=O)N[C@@H](CC(C)C)C(=O)N[C@@H](CC(C)C)C(=O)N[C@@H](CCC(N)=O)C(=O)N[C@H](C(=O)N[C@@H](CC(C)C)C(=O)N[C@@H](CC(C)C)C(=O)N[C@@H](CCC(=O)O)C(=O)N[C@@H](CCC(N)=O)C(=O)N[C@@H](C)C(=O)N[C@@H](CCCNC(=N)N)C(=O)N[C@@H](C)C(=O)N[C@@H](CCCNC(=N)N)C(=O)N[C@@H](CCC(N)=O)C(=O)N[C@@H](CC(C)C)C(=O)N[C@@H](CCCNC(=N)N)C(=O)N[C@@H](CCC(=O)O)C(=O)N[C@@H](CCC(N)=O)C(=O)N[C@@H](C)C(=O)N[C@@H](CCCCNC(=O)COCCOCCNC(=O)COCCOCCNC(=O)CC[C@H](NC(=O)CC[C@H](NC(=O)CCCCCCCCCCCCCCCCCCC(=O)O)C(=O)O)C(=O)O)C(=O)N[C@H](C(=O)N[C@@H](CC(N)=O)C(=O)N[C@@H](C)C(=O)N[C@@H](CCC(=O)O)C(=O)N[C@H](C(=O)N[C@@H](CC(C)C)C(=O)N[C@@H](C)C(=O)N[C@@H](CCC(=O)O)C(=O)N[C@H](C(N)=O)C(C)C)[C@@H](C)CC)[C@@H](C)O)[C@@H](C)CC)[C@@H](C)CC)C(C)C)C(C)C [compound 72] (H-IVLSLDVPIGLLQILLEQARARQLREQAK([AEEA-AEEA-γGlu-γGlu-C20 diacid])TNAEILAEV-NH2) |  |  | 0.316 | 251 | 
CC[C@H](C)[C@H](N)C(=O)N[C@H](C(=O)N[C@@H](CC(C)C)C(=O)N[C@@H](CO)C(=O)N[C@@H](CC(C)C)C(=O)N[C@@H](CC(=O)O)C(=O)N[C@H](C(=O)N1CCC[C@H]1C(=O)N[C@H](C(=O)NCC(=O)N[C@@H](CC(C)C)C(=O)N[C@@H](CC(C)C)C(=O)N[C@@H](CCC(N)=O)C(=O)N[C@H](C(=O)N[C@@H](CC(C)C)C(=O)N[C@@H](CC(C)C)C(=O)N[C@@H](CCC(=O)O)C(=O)N[C@@H](CCC(N)=O)C(=O)N[C@@H](C)C(=O)N[C@@H](CCCNC(=N)N)C(=O)N[C@@H](C)C(=O)N[C@@H](CCCNC(=N)N)C(=O)N[C@@H](C)C(=O)N[C@@H](C)C(=O)N[C@@H](CCCNC(=N)N)C(=O)N[C@@H](CCC(N)=O)C(=O)N[C@@H](CCC(N)=O)C(=O)N[C@@H](C)C(=O)N[C@@H](CCCCNC(=O)COCCOCCNC(=O)COCCOCCNC(=O)CC[C@H](NC(=O)CC[C@H](NC(=O)CCCCCCCCCCCCCCCCCCC(=O)O)C(=O)O)C(=O)O)C(=O)N[C@H](C(=O)N[C@@H](CC(N)=O)C(=O)N[C@@H](C)C(=O)N[C@@H](CCC(=O)O)C(=O)N[C@H](C(=O)N[C@@H](CC(C)C)C(=O)N[C@@H](C)C(=O)N[C@@H](CCC(=O)O)C(=O)N[C@H](C(N)=O)[C@@H](C)CC)[C@@H](C)CC)[C@@H](C)O)[C@@H](C)CC)[C@@H](C)CC)C(C)C)C(C)C [SEQ ID NO: 27] (H-IVLSLDVPIGLLQILLEQARARAARQQAK([AEEA-AEEA-γGlu-γGlu-C20 diacid])TNAEILAEI-NH2) | 0.316 | 63100 |  |  | 
